The supplement of paper PMC13207355
Counter-ions that a name gives are not always drawn.

How the values were obtained:
Conditions in all cases: exposure time: 72 h
[1] = tested on: E13 (patient-derived glioblastoma stem cells of classical subtype); assay: surviving fraction (nuclei count normalised to DMSO); higher = more cells surviving (less toxic)
[2] = tested on: E21 (patient-derived glioblastoma stem cells of mesenchymal subtype); assay: as above
[3] = tested on: E28 (patient-derived glioblastoma stem cells of classical subtype); assay: as above
[4] = tested on: E31 (patient-derived glioblastoma stem cells of proneural subtype); assay: as above
[5] = tested on: E34 (patient-derived glioblastoma stem cells of proneural subtype); assay: as above
[6] = tested on: E57 (patient-derived glioblastoma stem cells of mesenchymal subtype); assay: as above
[7] = tested on: FT3469 (normal neural stem cell line); assay: as above
[8] = tested on: E13; assay: phenotypic distance (Euclidean, principal components) from DMSO controls (arbitrary units); higher = stronger morphological change
[9] = tested on: E21; assay: as above
[10] = tested on: E28; assay: as above
[11] = tested on: E31; assay: as above
[12] = tested on: E34; assay: as above
[13] = tested on: E57; assay: as above
[14] = tested on: FT3469; assay: as above
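Wherever phenotypic distance (Euclidean, principal components) from DMSO controls is given: cell Painting imaging in 384-well plates, CellProfiler features reduced to at least 20 principal components, Euclidean distance versus same-plate DMSO vehicle wells (0.1% v/v), median over six images per well.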
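Wherever surviving fraction (nuclei count normalised to DMSO) is given: nuclei counted by high-content imaging of Hoechst-stained cells in laminin-coated 384-well plates, relative to 0.1% DMSO vehicle wells, with staurosporine as cell-death control.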

C[C@@H](O)[C@H]1C(=O)N2C(C(=O)O)=C(S[C@@H]3CN[C@H](C(=O)N(C)C)C3)[C@H](C)[C@H]12 [Meropenem]
Conditions | phenotypic distance | surviving fraction
[1], 4.11523 nM | – | 0.996
[1], 12.34567901 nM | – | 1.11
[1], 37.037 nM | – | 0.951
[1], 111.1111111 nM | – | 1.09
[1], 333.333 nM | – | 1.05
[1], 1000 nM | – | 1.31
[1], 3000 nM | – | 1.17
[2], 4.11523 nM | – | 1.15
[2], 12.34567901 nM | – | 1.14
[2], 37.037 nM | – | 1.07
[2], 111.1111111 nM | – | 1.11
[2], 333.333 nM | – | 1.02
[2], 1000 nM | – | 1.16
[2], 3000 nM | – | 1.06
[3], 4.11523 nM | – | 1.11
[3], 12.34567901 nM | – | 1.17
[3], 37.037 nM | – | 1.12
[3], 111.1111111 nM | – | 1.08
[3], 333.333 nM | – | 1.29
[3], 1000 nM | – | 1.23
[3], 3000 nM | – | 1.03
[4], 4.11523 nM | – | 1.13
[4], 12.34567901 nM | – | 1.1
[4], 37.037 nM | – | 1.15
[4], 111.1111111 nM | – | 0.926
[4], 333.333 nM | – | 1.17
[4], 1000 nM | – | 1.01
[4], 3000 nM | – | 1.16
[5], 4.11523 nM | – | 1.07
[5], 12.34567901 nM | – | 1.03
[5], 37.037 nM | – | 1.11
[5], 111.1111111 nM | – | 1.17
[5], 333.333 nM | – | 1.07
[5], 1000 nM | – | 0.937
[5], 3000 nM | – | 1.02
[6], 4.11523 nM | – | 1
[6], 12.34567901 nM | – | 1.01
[6], 37.037 nM | – | 1.01
[6], 111.1111111 nM | – | 1.03
[6], 333.333 nM | – | 1.01
[6], 1000 nM | – | 1.06
[6], 3000 nM | – | 0.989
[7], 4.11523 nM | – | 1.24
[7], 12.34567901 nM | – | 1.17
[7], 37.037 nM | – | 1.17
[7], 111.1111111 nM | – | 1.1
[7], 333.333 nM | – | 1.28
[7], 1000 nM | – | 0.993
[7], 3000 nM | – | 0.866
[8], 4.11523 nM | 0.447 | –
[8], 12.34567901 nM | 0.391 | –
[8], 37.037 nM | 0.465 | –
[8], 111.1111111 nM | 0.343 | –
[8], 333.333 nM | 0.428 | –
[8], 1000 nM | 1.47 | –
[8], 3000 nM | 0.693 | –
[9], 4.11523 nM | 1.01 | –
[9], 12.34567901 nM | 1 | –
[9], 37.037 nM | 0.846 | –
[9], 111.1111111 nM | 3.57 | –
[9], 333.333 nM | 0.377 | –
[9], 1000 nM | 0.695 | –
[9], 3000 nM | 0.387 | –
[10], 4.11523 nM | 0.51 | –
[10], 12.34567901 nM | 0.969 | –
[10], 37.037 nM | 0.452 | –
[10], 111.1111111 nM | 0.706 | –
[10], 333.333 nM | 0.645 | –
[10], 1000 nM | 0.83 | –
[10], 3000 nM | 0.601 | –
[11], 4.11523 nM | 0.705 | –
[11], 12.34567901 nM | 0.703 | –
[11], 37.037 nM | 0.741 | –
[11], 111.1111111 nM | 0.746 | –
[11], 333.333 nM | 0.485 | –
[11], 1000 nM | 0.528 | –
[11], 3000 nM | 0.487 | –
[12], 4.11523 nM | 0.76 | –
[12], 12.34567901 nM | 0.538 | –
[12], 37.037 nM | 0.692 | –
[12], 111.1111111 nM | 0.922 | –
[12], 333.333 nM | 0.78 | –
[12], 1000 nM | 0.612 | –
[12], 3000 nM | 0.538 | –
[13], 4.11523 nM | 0.603 | –
[13], 12.34567901 nM | 0.59 | –
[13], 37.037 nM | 0.529 | –
[13], 111.1111111 nM | 0.751 | –
[13], 333.333 nM | 0.536 | –
[13], 1000 nM | 0.871 | –
[13], 3000 nM | 0.419 | –
[14], 4.11523 nM | 0.799 | –
[14], 12.34567901 nM | 1.17 | –
[14], 37.037 nM | 0.764 | –
[14], 111.1111111 nM | 1.09 | –
[14], 333.333 nM | 0.633 | –
[14], 1000 nM | 0.854 | –
[14], 3000 nM | 0.676 | –

CC(C)NCC(O)c1cc(O)cc(O)c1 (stereo unspecified) [Metaproterenol sulfate, orciprenaline sulfate]
Conditions | phenotypic distance | surviving fraction
[1], 4.1 nM | – | 0.979
[1], 12.3 nM | – | 0.957
[1], 37 nM | – | 1.06
[1], 111.1 nM | – | 0.933
[1], 333.3 nM | – | 1.06
[1], 1000 nM | – | 0.995
[1], 3000 nM | – | 1.06
[2], 4.1 nM | – | 1
[2], 12.3 nM | – | 0.995
[2], 37 nM | – | 1.01
[2], 111.1 nM | – | 1.05
[2], 333.3 nM | – | 1.13
[2], 1000 nM | – | 1.02
[2], 3000 nM | – | 1.07
[3], 4.1 nM | – | 1.2
[3], 12.3 nM | – | 1.1
[3], 37 nM | – | 1.06
[3], 111.1 nM | – | 1.14
[3], 333.3 nM | – | 1.21
[3], 1000 nM | – | 1.04
[3], 3000 nM | – | 1.13
[4], 4.1 nM | – | 0.982
[4], 12.3 nM | – | 1.02
[4], 37 nM | – | 0.984
[4], 111.1 nM | – | 1.14
[4], 333.3 nM | – | 1.02
[4], 1000 nM | – | 1.13
[4], 3000 nM | – | 1.03
[5], 4.1 nM | – | 0.922
[5], 12.3 nM | – | 1.02
[5], 37 nM | – | 1.04
[5], 111.1 nM | – | 0.924
[5], 333.3 nM | – | 1.02
[5], 1000 nM | – | 1.24
[5], 3000 nM | – | 0.961
[6], 4.1 nM | – | 1.18
[6], 12.3 nM | – | 1.11
[6], 37 nM | – | 1.14
[6], 111.1 nM | – | 0.953
[6], 333.3 nM | – | 1.07
[6], 1000 nM | – | 1.18
[6], 3000 nM | – | 1.02
[7], 4.1 nM | – | 1.18
[7], 12.3 nM | – | 1.32
[7], 37 nM | – | 1.05
[7], 111.1 nM | – | 1.14
[7], 333.3 nM | – | 1.13
[7], 1000 nM | – | 1.04
[7], 3000 nM | – | 1.22
[8], 4.1 nM | 0.452 | –
[8], 12.3 nM | 0.546 | –
[8], 37 nM | 0.581 | –
[8], 111.1 nM | 0.458 | –
[8], 333.3 nM | 0.743 | –
[8], 1000 nM | 0.439 | –
[8], 3000 nM | 0.72 | –
[9], 4.1 nM | 0.506 | –
[9], 12.3 nM | 0.541 | –
[9], 37 nM | 0.821 | –
[9], 111.1 nM | 2.96 | –
[9], 333.3 nM | 0.869 | –
[9], 1000 nM | 0.684 | –
[9], 3000 nM | 0.751 | –
[10], 4.1 nM | 0.775 | –
[10], 12.3 nM | 0.464 | –
[10], 37 nM | 0.677 | –
[10], 111.1 nM | 0.689 | –
[10], 333.3 nM | 1.06 | –
[10], 1000 nM | 0.558 | –
[10], 3000 nM | 0.934 | –
[11], 4.1 nM | 0.663 | –
[11], 12.3 nM | 0.455 | –
[11], 37 nM | 0.562 | –
[11], 111.1 nM | 0.625 | –
[11], 333.3 nM | 0.672 | –
[11], 1000 nM | 0.447 | –
[11], 3000 nM | 0.615 | –
[12], 4.1 nM | 0.654 | –
[12], 12.3 nM | 0.671 | –
[12], 37 nM | 0.473 | –
[12], 111.1 nM | 0.805 | –
[12], 333.3 nM | 0.747 | –
[12], 1000 nM | 0.882 | –
[12], 3000 nM | 0.769 | –
[13], 4.1 nM | 0.966 | –
[13], 12.3 nM | 0.872 | –
[13], 37 nM | 0.874 | –
[13], 111.1 nM | 0.737 | –
[13], 333.3 nM | 1 | –
[13], 1000 nM | 0.774 | –
[13], 3000 nM | 0.716 | –
[14], 4.1 nM | 1.07 | –
[14], 12.3 nM | 1.13 | –
[14], 37 nM | 0.697 | –
[14], 111.1 nM | 0.559 | –
[14], 333.3 nM | 0.916 | –
[14], 1000 nM | 1.01 | –
[14], 3000 nM | 1.08 | –
